Patent publication US11136296B2, “Substituted N-arylethyl-2-arylquinoline-4-carboxamides and use thereof” (Bayer Aktiengesellschaft, priority 2017, dated 2021)
pIC50: −log10 of the molar value.

Molecular target: FP receptor (Homo sapiens (Human), UniProt P43088)
Test: In vitro test of inhibition of human FP receptor activity (PGF2α-induced calcium flux in FP-expressing CHEM1 cells)
Format: cell-based
Settings: PGF2α-induced (2 nM) calcium flux in FP-expressing CHEM1 cells; some as mean values from multiple determinations
Description: Table 1 below lists the IC50 values from this assay for individual working examples of the invention (some as mean values from multiple independent individual determinations): […]

FP receptor, sequence (P43088 whole entry): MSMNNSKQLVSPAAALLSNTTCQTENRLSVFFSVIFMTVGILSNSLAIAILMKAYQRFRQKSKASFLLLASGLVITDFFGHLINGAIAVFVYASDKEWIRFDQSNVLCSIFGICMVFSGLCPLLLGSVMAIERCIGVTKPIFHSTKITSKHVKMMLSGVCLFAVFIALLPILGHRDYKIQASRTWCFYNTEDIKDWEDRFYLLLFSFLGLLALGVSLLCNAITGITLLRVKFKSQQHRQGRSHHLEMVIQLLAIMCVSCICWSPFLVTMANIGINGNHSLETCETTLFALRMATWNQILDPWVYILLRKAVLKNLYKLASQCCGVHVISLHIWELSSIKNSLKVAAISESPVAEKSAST

Structure (SMILES)	pIC50
Cc1c(-c2ccccc2)nc2ccc(Br)cc2c1C(=O)NCC(C)(C(=O)O)c1cccc(C(F)(F)F)c1 (single isomer, unassigned; (-)) [Example 42, (−)-3-{[(6-Bromo-3-methyl-2-phenylquinolin-4-yl)carbonyl]amino}-2-methyl-2-[3-(trifluoromethyl)phenyl]propanoic Acid]	6.92
COc1cccc(C(CNC(=O)c2c(C)c(-c3ccccc3)nc3ccc(Br)cc23)C(=O)O)c1 (single isomer, unassigned; (-)) [Example 45, (−)-3-{[(6-Bromo-3-methyl-2-phenylquinolin-4-yl)carbonyl]amino}-2-(3-methoxyphenyl)propanoic Acid]	6.22
Cc1c(-c2ccccc2)nc2ccc(Br)cc2c1C(=O)NCC(C(=O)O)c1cccc(Cl)c1 (single isomer, unassigned; (-)) [Example 48, (−)-3-{[(6-Bromo-3-methyl-2-phenylquinolin-4-yl)carbonyl]amino}-2-(3-chlorophenyl)propanoic Acid]	7.48
Cc1cccc(C(CNC(=O)c2c(C)c(-c3ccccc3)nc3ccc(Br)cc23)C(=O)O)c1 (single isomer, unassigned; (-)) [Example 51, (−)-3-{[(6-Bromo-3-methyl-2-phenylquinolin-4-yl)carbonyl]amino}-2-(3-methylphenyl)propanoic Acid]	7.38
COc1ccccc1C(O)(CNC(=O)c1c(C)c(-c2ccccc2)nc2ccc(Br)cc12)C(=O)O (single isomer, unassigned; (-)) [Example 54, (−)-3-{[(6-Bromo-3-methyl-2-phenylquinolin-4-yl)carbonyl]amino}-2-hydroxy-2-(2-methoxyphenyl)propanoic Acid]	6.30
COc1cccc(F)c1C(CNC(=O)c1c(C)c(-c2ccccc2)nc2ccc(Br)cc12)C(=O)O (single isomer, unassigned; (-)) [Example 57, (−)-3-{[(6-Bromo-3-methyl-2-phenylquinolin-4-yl)carbonyl]amino}-2-(2-fluoro-6-methoxyphenyl)propanoic Acid]	6.68
COc1ccccc1C(C)(CNC(=O)c1c(C)c(-c2ccccc2)nc2ccc(Br)cc12)C(=O)O (single isomer, unassigned; (-)) [Example 59, (−)-3-{[(6-Bromo-3-methyl-2-phenylquinolin-4-yl)carbonyl]amino}-2-(2-methoxyphenyl)-2-methylpropanoic Acid]	6.41
Cc1c(-c2ccccc2)nc2ccc(Br)cc2c1C(=O)NCC(C)(C(=O)O)c1c(F)cccc1Cl (single isomer, unassigned; (-)) [Example 62, (−)-3-{[(6-Bromo-3-methyl-2-phenylquinolin-4-yl)carbonyl]amino}-2-(2-chloro-6-fluorophenyl)-2-methylpropanoic Acid]	7.37
Cc1c(-c2ccccc2)nc2ccc(Br)cc2c1C(=O)NCC(CC(=O)O)c1ccccc1 (single isomer, unassigned; (-)) [Example 64, (−)-4-{[(6-Bromo-3-methyl-2-phenylquinolin-4-yl)carbonyl]amino}-3-phenylbutanoic Acid]	6.47
Cc1c(-c2ccccc2)nc2ccc(Br)cc2c1C(=O)NCC(CC(=O)O)c1ccc(Cl)cc1 (single isomer, unassigned; (-)) [Example 68, (−)-4-{[(6-Bromo-3-methyl-2-phenylquinolin-4-yl)carbonyl]amino}-3-(4-chlorophenyl)butanoic Acid]	< 6.00
Cc1ccccc1C(CNC(=O)c1c(C)c(-c2ccccc2)nc2ccc(Br)cc12)CC(=O)O (single isomer, unassigned; (-)) [Example 76, (−)-4-{[(6-Bromo-3-methyl-2-phenylquinolin-4-yl)carbonyl]amino}-3-(2-methylphenyl)butanoic Acid]	7.64
Cc1c(-c2ccccc2)nc2ccc(Br)cc2c1C(=O)NCC(C)(CC(=O)O)c1ncccc1Cl (single isomer, unassigned; (-)) [Example 85, (−)-4-{[(6-Bromo-3-methyl-2-phenylquinolin-4-yl)carbonyl]amino}-3-(3-chloropyridin-2-yl)-3-methylbutanoic Acid]	7.80
Cc1c(-c2ccccc2)nc2ccc(Br)cc2c1C(=O)NCC(CC(=O)O)c1c(F)cccc1Cl (single isomer, unassigned; (-)) [Example 88, (−)-4-{[(6-Bromo-3-methyl-2-phenylquinolin-4-yl)carbonyl]amino}-3-(2-chloro-6-fluorophenyl)butanoic Acid]	7.72
Cc1ccc(C(CNC(=O)c2c(C)c(-c3ccccc3)nc3ccc(Br)cc23)CC(=O)O)cc1 (single isomer, unassigned; (-)) [Example 92, (−)-4-{[(6-Bromo-3-methyl-2-phenylquinolin-4-yl)carbonyl]amino}-3-(4-methylphenyl)butanoic Acid]	6.49
Cc1c(-c2ccccc2)nc2ccc(Br)cc2c1C(=O)NCC(CC(=O)O)c1ccccc1OC(F)(F)F (single isomer, unassigned; (-)) [Example 100, (−)-4-{[(6-Bromo-3-methyl-2-phenylquinolin-4-yl)carbonyl]amino}-3-[2-(trifluoromethoxy)phenyl]butanoic Acid]	7.70
Cc1c(-c2ccccc2)nc2ccc(Br)cc2c1C(=O)NCC(CC(=O)O)c1ccccn1 (single isomer, unassigned; (-)) [Example 103, (−)-4-{[(6-Bromo-3-methyl-2-phenylquinolin-4-yl)carbonyl]amino}-3-(pyridin-2-yl)butanoic Acid]	6.54
Cc1c(-c2ccccc2)nc2ccc(Br)cc2c1C(=O)NCC(CC(=O)O)c1ccccc1C(F)(F)F (single isomer, unassigned; (-)) [Example 107, (−)-4-{[(6-Bromo-3-methyl-2-phenylquinolin-4-yl)carbonyl]amino}-3-[2-(trifluoromethyl)phenyl]butanoic Acid]	7.29
COc1cccnc1C(CNC(=O)c1c(C)c(-c2ccccc2)nc2ccc(Br)cc12)CC(=O)O (single isomer, unassigned; (-)) [Example 109, (−)-4-{[(6-Bromo-3-methyl-2-phenylquinolin-4-yl)carbonyl]amino}-3-(3-methoxypyridin-2-yl)butanoic Acid]	7.12
Cc1c(-c2ccccc2)nc2ccc(Br)cc2c1C(=O)NCC(C)(CC(=O)O)c1ccccc1F (single isomer, unassigned; (-)) [Example 116, (−)-4-{[(6-Bromo-3-methyl-2-phenylquinolin-4-yl)carbonyl]amino}-3-(2-fluorophenyl)-3-methylbutanoic Acid]	7.13
Cc1c(-c2ccccc2)nc2ccc(Br)cc2c1C(=O)NCC(C)(CC(=O)O)c1ccccn1 (single isomer, unassigned; (-)) [Example 119, (−)-4-{[(6-Bromo-3-methyl-2-phenylquinolin-4-yl)carbonyl]amino}-3-methyl-3-(pyridin-2-yl)butanoic Acid]	6.82
COc1ccccc1C(C)(CNC(=O)c1c(C)c(-c2ccccc2)nc2ccc(Br)cc12)CC(=O)O (single isomer, unassigned; (-)) [Example 122, (−)-4-{[(6-Bromo-3-methyl-2-phenylquinolin-4-yl)carbonyl]amino}-3-(2-methoxyphenyl)-3-methylbutanoic Acid]	6.34
COc1ccc(F)cc1C(CNC(=O)c1c(C)c(-c2ccccc2)nc2ccc(Br)cc12)CC(=O)O (single isomer, unassigned; (-)) [Example 125, (−)-4-{[(6-Bromo-3-methyl-2-phenylquinolin-4-yl)carbonyl]amino}-3-(5-fluoro-2-methoxyphenyl)butanoic Acid]	7.01
COc1cccc(F)c1C(CNC(=O)c1c(C)c(-c2ccccc2)nc2ccc(Br)cc12)CC(=O)O (single isomer, unassigned; (-)) [Example 128, (−)-4-{[(6-Bromo-3-methyl-2-phenylquinolin-4-yl)carbonyl]amino}-3-(2-fluoro-6-methoxyphenyl)butanoic Acid]	6.96
CCOc1ccccc1C(CNC(=O)c1c(C)c(-c2ccccc2)nc2ccc(Br)cc12)CC(=O)O (single isomer, unassigned; (-)) [Example 130, (−)-4-{[(6-Bromo-3-methyl-2-phenylquinolin-4-yl)carbonyl]amino}-3-(2-ethoxyphenyl)butanoic Acid]	6.49
COc1ccc(F)cc1C(C)(CNC(=O)c1c(C)c(-c2ccccc2)nc2ccc(Br)cc12)CC(=O)O (single isomer, unassigned; (-)) [Example 134, (−)-4-{[(6-Bromo-3-methyl-2-phenylquinolin-4-yl)carbonyl]amino}-3-(5-fluoro-2-methoxyphenyl)-3-methylbutanoic Acid]	6.10
COc1c(F)cc(F)cc1C(C)(CNC(=O)c1c(C)c(-c2ccccc2)nc2ccc(Br)cc12)CC(=O)O (single isomer, unassigned; (-)) [Example 137, (−)-4-{[(6-Bromo-3-methyl-2-phenylquinolin-4-yl)carbonyl]amino}-3-(3,5-difluoro-2-methoxyphenyl)-3-methylbutanoic Acid]	6.36
COc1cc(F)ccc1C(C)(CNC(=O)c1c(C)c(-c2ccccc2)nc2ccc(Br)cc12)CC(=O)O (single isomer, unassigned; (-)) [Example 140, (−)-4-{[(6-Bromo-3-methyl-2-phenylquinolin-4-yl)carbonyl]amino}-3-(4-fluoro-2-methoxyphenyl)-3-methylbutanoic Acid]	< 6.00
COc1cccc(F)c1C(C)(CNC(=O)c1c(C)c(-c2ccccc2)nc2ccc(Br)cc12)CC(=O)O (single isomer, unassigned; (-)) [Example 144, (−)-4-{[(6-Bromo-3-methyl-2-phenylquinolin-4-yl)carbonyl]amino}-3-(2-fluoro-6-methoxyphenyl)-3-methylbutanoic Acid]	6.89
Cc1c(-c2ccccc2)nc2ccc(Br)cc2c1C(=O)NC(C)C(CC(=O)O)c1ccccc1Cl (single isomer, unassigned; (-)) [Example 146, (−)-4-{[(6-Bromo-3-methyl-2-phenylquinolin-4-yl)carbonyl]amino}-3-(2-chlorophenyl)pentanoic Acid]	< 6.00
